Consider one compound from US20140249076A1, “AMYLIN-CALCITONIN CHIMERIC PEPTIDES CONJUGATED TO DURATION ENHANCING MOIETIES” (AMYLIN PHARMACEUTICALS, LLC, priority 2011, published 2014).

In one test the test system is mice. Description: Forced swim test (FST). The test is classed as in vivo, mouse. The following applies: qualitative result; 0.03 mg/kg dosing, as in Example 8. The source says:
The forced swim test (FST) is a commonly used paradigm to evaluate antidepressant activity of drugs. The FST is based on measurement of the animal's floating time in a tank filled with water. When rats or mice are forced to swim in a deep cylinder with tepid water they become nearly immobile and cease trying to escape. Without wishing to be bound by any theory, it is believe that this characteristic immobile posture reflects a depressive-like state which is readily influenced by a wide variety of antidepressants. See, e.g., Hedou et al., 2001, Pharmacol, Biochem. Behay. 70:65-76; Chaki et al., 2003, J. Pharmacol. Exp. Ther. 304:818-826; Porsolt et al., 1977, Nature 266:730-732. Antidepressants decrease the immobility time in the FST. Vehicle or test compound can be delivered continuously for two weeks to mice by subcutaneously implanted osmotic pumps prior to the FST. Indeed, any route of administration (e.g., intraperitoneal, subcutaneous, oral and the like) is available. Mice can be placed in the water tank for assessment of climbing, swimming, and immobility over a defined trial session, typically 6 minutes. Test session parameters for mice and rats are typically different, as known in the art.
The forced swim test (FST) is a commonly used paradigm to evaluate antidepressant activity of drugs. […] Specifically, vehicle or test compound was delivered continuously for two weeks to mice by subcutaneously implanted osmotic pumps prior to the FST assay, by methods well known in the art. On day one, the patients were introduced into the tank for a 15 minute pre-swim session. On day two, the patients were placed back into the water tank for assessment of climbing, swimming, and immobility over a 6 minute trial session. The rate of compound infusion was 0.03 mg/kg/day.

In the next test the target is T1, Amylin receptor (Rattus norvegicus, UniProt P32214).
T1 construct: from tissue; read as rat nucleus accumbens membranes
T1 sequence (P32214 25-516): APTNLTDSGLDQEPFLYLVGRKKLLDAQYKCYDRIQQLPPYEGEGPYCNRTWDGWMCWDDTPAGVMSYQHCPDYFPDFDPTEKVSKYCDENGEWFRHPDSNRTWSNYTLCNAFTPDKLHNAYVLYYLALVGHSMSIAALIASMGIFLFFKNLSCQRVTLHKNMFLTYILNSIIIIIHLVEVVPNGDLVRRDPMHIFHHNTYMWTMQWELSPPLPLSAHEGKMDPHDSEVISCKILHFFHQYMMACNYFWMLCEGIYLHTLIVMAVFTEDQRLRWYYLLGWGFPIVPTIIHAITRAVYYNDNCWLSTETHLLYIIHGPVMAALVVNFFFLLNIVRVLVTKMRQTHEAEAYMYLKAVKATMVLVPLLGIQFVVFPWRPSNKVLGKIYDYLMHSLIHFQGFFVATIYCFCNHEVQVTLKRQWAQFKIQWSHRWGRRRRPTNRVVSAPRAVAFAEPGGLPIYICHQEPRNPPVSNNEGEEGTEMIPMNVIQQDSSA
T1 sequence (Q9JJ74 27-148 partner): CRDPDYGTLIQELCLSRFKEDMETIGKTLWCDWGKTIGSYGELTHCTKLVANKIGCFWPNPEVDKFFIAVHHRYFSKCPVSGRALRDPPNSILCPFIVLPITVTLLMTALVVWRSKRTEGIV
Nature of the test: Amylin receptor binding assay (125I-rat amylin, RNA membranes). The following applies: Table 8. How it is done: Amylin receptor binding assay. RNA membranes can be incubated with approximately […] (final concentration) of ^125I-rat amylin (Bolton-Hunter labeled, PerkinElmer, Waltham, Mass.) and increasing concentrations of test compound for 1 hour at ambient temperature in, for example, 96-well polystyrene plates. […] Dried glass fiber plates can be combined with scintillant and counted on a multi-well Perkin Elmer scintillation counter.
(§1) A variety of receptor binding and functional activity assays were conducted using the peptide conjugates described herein. Receptor binding activity can be expressed, for example in Table 6, as an IC50 value, calculated from the raw data using an iterative curve-fitting program using a 4-parameter logistic equation (PRISM®, GraphPAD Software, La Jolla, Calif.), as known in the art.
For the amylin receptor binding assay, RNA membranes were incubated with approximately […] (final concentration) of ^125I-rat amylin (Bolton-Hunter labeled, PerkinElmer, Waltham, Mass.) and increasing concentrations of test compound for 1 hour at ambient temperature in 96-well polystyrene plates. […] Dried glass fiber plates were combined with scintillant and counted on a multi-well Perkin Elmer scintillation counter, as well known in the art.

The next test has as its target T2, Calcitonin receptor (Rattus norvegicus, UniProt P32214).
T2 construct: expressed in transfected cells; host or cells: C1a-HEK cells (HEK cells stably expressing the receptor), membranes
T2 sequence (P32214 25-479 isoform P32214-2 limits assumed): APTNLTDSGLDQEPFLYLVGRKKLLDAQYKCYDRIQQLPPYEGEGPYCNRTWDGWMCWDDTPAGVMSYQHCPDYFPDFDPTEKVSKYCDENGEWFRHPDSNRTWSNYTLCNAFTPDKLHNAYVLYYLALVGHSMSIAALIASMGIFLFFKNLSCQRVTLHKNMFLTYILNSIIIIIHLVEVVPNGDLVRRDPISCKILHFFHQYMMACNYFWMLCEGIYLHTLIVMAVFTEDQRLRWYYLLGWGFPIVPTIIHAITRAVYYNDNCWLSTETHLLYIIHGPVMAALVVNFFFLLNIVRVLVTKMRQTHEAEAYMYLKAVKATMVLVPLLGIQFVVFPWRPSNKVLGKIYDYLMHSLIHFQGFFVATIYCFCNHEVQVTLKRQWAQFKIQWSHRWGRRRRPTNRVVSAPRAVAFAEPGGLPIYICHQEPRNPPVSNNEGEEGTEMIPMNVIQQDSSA
Description: Calcitonin receptor binding assay (125I-human calcitonin, C1a-HEK cell membranes). The following applies: Table 8. How it is done:
Calcitonin receptor binding assay. C1a-HEK cell membranes can be incubated with approximately […] (final concentration) of ^125I-human calcitonin (PerkinElmer, Waltham, Mass.) and increasing concentrations of test compound for 1 hour at ambient temperature in, for example, 96-well polystyrene plates. […] Dried glass fiber plates can be combined with scintillant and counted on a multiwell Perkin Elmer scintillation counter.
as §1
For the calcitonin receptor binding assay, C1a-HEK cell membranes were incubated with approximately […] (final concentration) of ^125I-human calcitonin (PerkinElmer, Waltham, Mass.) and increasing concentrations of test compound for 1 hour at ambient temperature in 96-well polystyrene plates. […] Dried glass fiber plates were combined with scintillant and counted on a multiwell Perkin Elmer scintillation counter.

Bridge positions count the residues as written; N and C are the ends. Peptide text beside a SMILES is read from it.

As usually defined, the IC50 is the concentration at which inhibition is half-maximal. Take `CC(C)C[C@H](NC(=O)[C@H](C)NC(=O)[C@@H]1CSSC[C@H](NC(=O)[C@@H](N)CCCCN)C(=O)N[C@@H](CC(N)=O)C(=O)N[C@@H]([C@@H](C)O)C(=O)N[C@@H](C)C(=O)N[C@@H]([C@@H](C)O)C(=O)N1)C(=O)N[C@@H](CCC(N)=O)C(=O)N[C@@H](CCCNC(=N)N)C(=O)N[C@@H](CC(C)C)C(=O)N[C@@H](C)C(=O)N[C@@H](CCC(N)=O)C(=O)N[C@@H](CCC(=O)O)C(=O)N[C@@H](CC(C)C)C(=O)N[C@@H](Cc1c[nH]cn1)C(=O)N[C@@H](CCCNC(=N)N)C(=O)N[C@@H](CC(C)C)C(=O)N[C@@H](CCC(N)=O)C(=O)N[C@H](C(=O)N[C@@H](Cc1ccc(O)cc1)C(=O)N1CCC[C@H]1C(=O)N[C@@H](CCCNC(=N)N)C(=O)N[C@H](C(=O)N[C@@H](CC(N)=O)C(=O)N[C@H](C(=O)NCC(=O)N[C@@H](CO)C(=O)N[C@@H](CC(N)=O)C(=O)N[C@H](C(=O)N[C@@H](Cc1ccc(O)cc1)C(N)=O)[C@@H](C)O)C(C)C)[C@@H](C)O)[C@@H](C)O` [Cmpd 17] (H-KCNTATCALQRLAQELHRLQTYPRTNVGSNTY-NH2; disulfide 2-7; N-terminus assumed): the “FST Assay, 0.03 mg/kg” value with mice is “Inactive”. The IC50 on Amylin receptor came to 0.028 nM; at Calcitonin receptor, 0.095 nM.
